Data from publication PMC9293466 (Chembiochem, 2021).

Molecular target: T1, Gc4EO (Gulosibacter chungangensis, UniProt A0A7J5BGR1)
T1 sequence (A0A7J5BGR1 1-529): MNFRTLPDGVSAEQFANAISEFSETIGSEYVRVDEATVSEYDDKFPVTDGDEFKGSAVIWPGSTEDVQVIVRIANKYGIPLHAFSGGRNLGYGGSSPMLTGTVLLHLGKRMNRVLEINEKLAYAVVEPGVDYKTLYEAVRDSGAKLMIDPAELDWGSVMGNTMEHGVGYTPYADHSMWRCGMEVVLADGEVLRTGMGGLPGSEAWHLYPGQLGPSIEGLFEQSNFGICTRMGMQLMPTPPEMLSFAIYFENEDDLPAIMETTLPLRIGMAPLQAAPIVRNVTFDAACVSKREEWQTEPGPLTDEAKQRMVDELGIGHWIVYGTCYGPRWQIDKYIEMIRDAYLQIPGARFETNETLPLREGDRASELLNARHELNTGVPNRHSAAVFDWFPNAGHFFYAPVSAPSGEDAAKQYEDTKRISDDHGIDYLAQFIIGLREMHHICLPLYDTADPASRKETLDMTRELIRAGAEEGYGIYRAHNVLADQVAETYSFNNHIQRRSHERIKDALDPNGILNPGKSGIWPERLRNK
Assay: X-ray crystal structure, […] Å
Assay type: binding
Details: covalent; C8M of FAD to His395; pH 8.0 crystals

Cc1cc2nc3c(=O)[nH]c(=O)nc-3n(C[C@H](O)[C@H](O)[C@H](O)COP(=O)(O)OP(=O)(O)OC[C@H]3O[C@@H](n4cnc5c(N)ncnc54)[C@H](O)[C@@H]3O)c2cc1C [FAD]
X-ray crystal structure, 1.7 Å: showing the covalent bond between the C8 M of FAD and His395
